In the NIST ThermoML archive (doi:10.1016/j.jct.2013.02.020) one finds surface tension liquid-gas, mass density and refractive index data, which are given here for five compounds.

The conditions of data set [1]: 298.15 K; for surface tension liquid-gas: Wilhelmy plate method; for mass density: 100 kPa, Liquid, Vibrating tube method.
Data set [2] in a line: refractive index (Na D-line) (dimensionless). The note with it: 298.15 K; 100 kPa; Liquid; Standard Abbe refractometry.

Numbers after ± are expanded uncertainties.

Take `CC(=O)[O-].CCn1cc[n+](C)c1` [1-ethyl-3-methylimidazolium acetate]: in data set [1], the surface tension liquid-gas is recorded as 43.5 ± 0.2 mN/m and the mass density is recorded as 1097.37 ± 2.2 kg/m3. In data set [2], the refractive index was determined as 1.5012 ± 0.0005.

As to `CCOS(=O)(=O)[O-].CCn1cc[n+](C)c1` [1-ethyl-3-methylimidazolium ethyl sulfate], in data set [1], the surface tension liquid-gas is on record as 48.4 ± 0.2 mN/m and the mass density was found to be 1234.53 ± 2.2 kg/m3. Moreover, the refractive index in data set [2] amounted to 1.4771 ± 0.0005.

On to `CCn1cc[n+](C)c1.CS(=O)(=O)[O-]` [1-ethyl-3-methylimidazolium methanesulfonate], for which, in data set [1], the surface tension liquid-gas is on record as 51.2 ± 0.3 mN/m and the mass density turned out to be 1242.52 ± 2.2 kg/m3. Also, the refractive index in data set [2] is reported as 1.4962 ± 0.0005.

`c1ccncc1` [pyridine]: in data set [1], the surface tension liquid-gas is 37.5 ± 0.4 mN/m and the mass density came out at 978.25 ± 2.3 kg/m3. Further, the refractive index in data set [2] is recorded as 1.5072 ± 0.0006.

Consider `c1ccsc1` [thiophene], for which, in data set [1], the surface tension liquid-gas was 31.7 ± 0.3 mN/m and the mass density was 1058.44 ± 2.4 kg/m3. Moreover, the refractive index in data set [2] was determined as 1.5271 ± 0.0006.
